Experiments:
Bevacizumab [1] = target: T1, Bevacizumab (Homo sapiens, UniProt P01857); experiment: Langmuir isotherms by batch adsorption; format: binding, humanized; conditions: Bevacizumab in PBS pH 7.3, 25° C., at least 3 h
T1 construct: fused on or other part: humanised anti-VEGF-A VH domain N-terminal of the gamma-1 constant region (engineered, no UniProt entry)
Description: Experiments were performed with Bevacizumab as antibody. Parameters of Langmuir isotherms for purified antibody were determined by batch adsorption experiments in 96-well microtiter plates. In each well, 10 μl of sorbent slurry (50% v/v) were mixed with 100 μl of protein solution. Initial concentrations varied from 0.05-5 mg ml^−1 in phosphate-buffered saline (0.15 M NaCl, 20 mM phosphate buffer, pH 7.3; PBS). Reactions were agitated vigorously at 25° C. for at least 3 h. Afterwards, antibody concentration in the supernatents were measured by Bradford assay.
Parameters of Langmuir isotherms, i.e. dissociation constants Kd and maximum capacities qm, were determined from the measured concentrations in supernatants. Parameters were estimated by numerical fitting of the model equation derived by Chase (4).

host cell proteins (HCP) [2] = experiment: Microtiter plate chromatography of resins, host cell proteins (bound); format: binding, CHO; conditions: host cell proteins
[3] = test system: human poly-IgG (h-poly-IgG); experiment: Microtiter plate chromatography of resins, human poly-IgG (bound, yield); format: binding
Palivizumab = experiment: Microtiter plate chromatography of resins, Palivizumab (bound, yield); format: binding, humanized
Bevacizumab [4] = target: T1, Bevacizumab; experiment: Microtiter plate chromatography of resins, Bevacizumab whole IgG (bound, yield, selectivity); format: binding, humanized
Bevacizumab Fc fragment = experiment: Microtiter plate chromatography of resins, Bevacizumab Fc fragment (bound); format: binding, humanized; conditions: for Bevacizumab Fc Bound (%): Bevacizumab Fc fragment
Description: (§1) Resins were assessed in packed mode by microtiter plate chromatography. For each column, approximately 30 μl of resin were transferred to a 384-well filter plate and sealed with appropriate top frits.
(§2) Columns were equilibrated with 6.7 column volumes (cv) of phosphate buffered saline (0.15 M NaCl, 20 mM sodium phosphate, pH 7.3; PBS) prior to injection. Either 3.3 cv of whole IgGs dissolved at 0.75 mg ml^−1, Fab or Fc fragments dissolved at 0.25 mg ml^−1 (all three in PBS) or host cell proteins (HCP) were injected onto columns. Antibody fragments of Bevacizumab (Fab and Fc) were prepared by cleavage of whole IgG with papain protease (3) according to the protocol of the manufacturer. […] Volumes transferred were spun through columns at 50 g for 1-2 min. During injection of samples, acceleration was reduced to 10 g and centrifugation time increased to 5-10 min. Effluent fractions were collected in 384-well plates and concentrations of protein analyzed by Bradford assay. Protein masses mi, mft and me (see below) were calculated as the product of fraction volume and measured protein concentration.
(§3) The fraction of ‘bound’ protein was calculated as the difference between the total mass of protein injected mi and the mass of protein detected in the flowthrough mft, divided by the total mass of protein injected.
(§4) the fraction of ‘bound’ protein and the ‘yield’ of protein were calculated for each resin based on data for whole IgG-antibodies. In the case of Bevacizumab fragments and host cell proteins, only the fraction of ‘bound’ protein is given. Selectivity of resins was calculated from data for Bevacizumab Whole IgG and host cell proteins. Due to limited experimental precision, selectivity was truncated beyond values of 10.

Tocilizumab = experiment: Microtiter plate chromatography of resins, Tocilizumab (bound, yield); format: binding, humanized
Bevacizumab Fab fragment = experiment: Microtiter plate chromatography of resins, Bevacizumab Fab fragment (bound); format: binding, humanized; conditions: for Bevacizumab Fab Bound (%): Bevacizumab Fab fragment
Description: as §1, §2, §3, §4

host cell proteins (HCP) [5] = experiment: Microtiter plate chromatography of resins, host cell proteins (bound); format: binding, CHO; conditions: estimate predicted on the basis of close analogs L49 and L50
[6] = fraction of whole IgG Bevacizumab bound to resin
[7] = mass of whole IgG Bevacizumab eluted / mass injected
[8] = estimate predicted on the basis of close analogs L49 and L50

| Structure (SMILES) | qm (maximum capacity, Langmuir isotherm) (Bevacizumab [1]) [mg per ml resin] | Kd (Bevacizumab [1]; read-out: Kd (dissociation constant, Langmuir isotherm)) [µM] | HCP Bound (%) (host cell proteins (HCP) [2]) | h-poly-IgG Bound (%) [3] [%] | h-poly-IgG Yield (%) [3] [%] | Palivizumab Bound (%) (Palivizumab) | Palivizumab Yield (%) (Palivizumab) | Bevacizumab IgG Bound (%) (Bevacizumab [4]; [6]) | Bevacizumab IgG Yield (%) (Bevacizumab [4]; [7]) | Bevacizumab Fc Bound (%) (Bevacizumab Fc fragment) | Tocilizumab Bound (%) (Tocilizumab) | Tocilizumab Yield (%) (Tocilizumab) | Bevacizumab Fab Bound (%) (Bevacizumab Fab fragment) | Bevacizumab IgG Bound (%) (Bevacizumab [4]; [8]) | Bevacizumab IgG Yield (%) (Bevacizumab [4]; [8]) | HCP Bound (%) (host cell proteins (HCP) [5]) | binding of Bevacizumab Fc-fragment (Bevacizumab Fc fragment; Fc 0.25 mg ml^-1 in PBS) | binding of Bevacizumab Fab-fragment (Bevacizumab Fab fragment; Fab 0.25 mg ml^-1 in PBS) |
| --- | --- | --- | --- | --- | --- | --- | --- | --- | --- | --- | --- | --- | --- | --- | --- | --- | --- | --- |
| COc1ccc(NC(=O)c2cncc(-c3ccco3)c2)cc1C(=O)NCCCN [Ligand L13, 5-[3-(2-Furyl)pyridin-5-yl]carboxamido-2-methoxybenzoic acid N-(3-aminopropyl)amide] | 37 | 411 | 38 | 76 | 75 | 65 | 58 | 100 | 94 | 64 | 91 | 79 | 9 | – | – | – | – | – |
| COc1ccc(NC(=O)c2cn3ccsc3n2)cc1C(=O)NCCOCC(=O)NCCCC[C@H](NC(=O)COCCNC(=O)c1cc(NC(=O)c2cn3ccsc3n2)ccc1OC)C(=O)NCCCN [Ligand L53, (S)-2,6-Bis{5-[5-(Imidazo[2,1-b]thiazol-6-ylcarboxamido)-2-methoxyphenylcarboxamido]-3-oxapentanoylamido}hexanoic acid (3-amino-1-propyl)amide] | – | – | – | – | – | – | – | – | – | – | >90 | >90 | – | >95 | >85 | <20 | – | – |
| COc1ccc(NC(=O)c2nn(C)c3ccccc23)cc1C(=O)NCCCN [Ligand L27, 2-Methoxy-5-(1-methylindazol-3-yl)carboxamidobenzoic acid N-(3-aminopropyl)amide] | 33 | – | 35 | 98 | 89 | 100 | 94 | 100 | 94 | 96 | 100 | 104 | 6 | – | – | – | bound the Fc-fragment | not the Fab-fragment |
| COc1ccc(NC(=O)c2cncc(C3CC3)c2)cc1C(=O)NCCCN [Ligand L23, 5-(3-Cyclopropylpyridin-5-yl)carboxamido-2-methoxybenzoic acid N-(3-aminopropyl)amide] | 33 | – | 32 | 75 | 74 | 61 | 57 | 100 | 98 | 67 | 86 | 85 | 12 | – | – | – | – | – |

Reference: patent publication US20130131321A1, “LIGANDS FOR ANTIBODY AND Fc-FUSION PROTEIN PURIFICATION BY AFFINITY CHROMATOGRAPHY” (GRAFFINITY PHARMACEUTICALS GMBH, priority 2010, published 2013)
